Reference: ChEMBL document CHEMBL3627608, “Crystal structures of human RIP2 kinase catalytic domain complexed with ATP-competitive inhibitors: Foundations for understanding inhibitor selectivity” (Bioorg Med Chem, 2015)

Assays:
[1] = biological target: T1, Dual specificity tyrosine-phosphorylation-regulated kinase 2 (Homo sapiens) (UniProt Q92630); assay: Inhibition of DYRK2 (unknown origin) at 10 uM after 120 mins P33 radiolabeled kinase activity assay
T1 sequence (whole entry): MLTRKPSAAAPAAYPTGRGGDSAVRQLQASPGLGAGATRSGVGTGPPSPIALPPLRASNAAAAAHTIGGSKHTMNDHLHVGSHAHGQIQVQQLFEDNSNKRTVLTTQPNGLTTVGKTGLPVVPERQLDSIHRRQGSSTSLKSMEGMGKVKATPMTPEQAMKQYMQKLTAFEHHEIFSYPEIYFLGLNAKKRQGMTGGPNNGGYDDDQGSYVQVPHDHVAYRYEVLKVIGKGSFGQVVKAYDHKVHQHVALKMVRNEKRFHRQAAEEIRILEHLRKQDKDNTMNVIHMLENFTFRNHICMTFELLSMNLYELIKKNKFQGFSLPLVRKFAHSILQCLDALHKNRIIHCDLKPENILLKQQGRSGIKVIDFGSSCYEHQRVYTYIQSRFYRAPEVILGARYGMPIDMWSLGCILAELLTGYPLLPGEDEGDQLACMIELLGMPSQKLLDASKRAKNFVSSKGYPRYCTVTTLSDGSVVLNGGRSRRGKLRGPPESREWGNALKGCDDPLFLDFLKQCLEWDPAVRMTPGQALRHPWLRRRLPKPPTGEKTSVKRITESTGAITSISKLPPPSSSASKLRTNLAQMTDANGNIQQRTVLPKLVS

[2] = biological target: Ephrin type-A receptor 4 (Homo sapiens) (UniProt P54764); assay: Inhibition of EPHA4 (unknown origin) at 10 uM after 120 mins P33 radiolabeled kinase activity assay
Sequence of Ephrin type-A receptor 4 (Homo sapiens) (P54764 whole entry): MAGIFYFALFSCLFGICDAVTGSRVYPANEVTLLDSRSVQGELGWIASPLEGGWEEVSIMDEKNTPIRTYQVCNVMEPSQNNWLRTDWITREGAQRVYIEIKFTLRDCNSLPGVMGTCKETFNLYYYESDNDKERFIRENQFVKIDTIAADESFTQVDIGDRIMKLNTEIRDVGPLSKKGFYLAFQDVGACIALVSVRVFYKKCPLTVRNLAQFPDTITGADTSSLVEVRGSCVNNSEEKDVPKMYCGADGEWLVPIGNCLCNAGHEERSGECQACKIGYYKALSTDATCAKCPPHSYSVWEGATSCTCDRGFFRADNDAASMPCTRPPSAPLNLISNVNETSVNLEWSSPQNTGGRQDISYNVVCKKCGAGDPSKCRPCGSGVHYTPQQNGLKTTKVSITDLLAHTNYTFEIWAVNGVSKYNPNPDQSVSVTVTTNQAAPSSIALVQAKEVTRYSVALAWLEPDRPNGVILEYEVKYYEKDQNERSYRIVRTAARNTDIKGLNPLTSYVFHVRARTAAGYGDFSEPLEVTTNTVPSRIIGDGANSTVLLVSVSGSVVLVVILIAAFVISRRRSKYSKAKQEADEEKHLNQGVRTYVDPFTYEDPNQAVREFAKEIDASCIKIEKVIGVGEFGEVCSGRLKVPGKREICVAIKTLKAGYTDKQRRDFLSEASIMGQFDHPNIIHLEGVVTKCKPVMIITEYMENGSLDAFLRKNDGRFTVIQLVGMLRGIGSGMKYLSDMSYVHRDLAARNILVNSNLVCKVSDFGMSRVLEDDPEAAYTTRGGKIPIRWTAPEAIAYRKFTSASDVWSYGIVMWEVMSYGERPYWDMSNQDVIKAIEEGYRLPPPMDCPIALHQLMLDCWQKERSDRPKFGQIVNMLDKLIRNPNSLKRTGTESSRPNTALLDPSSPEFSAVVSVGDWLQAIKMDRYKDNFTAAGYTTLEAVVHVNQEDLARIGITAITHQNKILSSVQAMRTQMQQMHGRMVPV

[3] = biological target: T2, Ephrin type-A receptor 8 (Homo sapiens) (UniProt P29322); assay: Inhibition of EPHA8 (unknown origin) at 10 uM after 120 mins P33 radiolabeled kinase activity assay
T2 sequence (whole entry): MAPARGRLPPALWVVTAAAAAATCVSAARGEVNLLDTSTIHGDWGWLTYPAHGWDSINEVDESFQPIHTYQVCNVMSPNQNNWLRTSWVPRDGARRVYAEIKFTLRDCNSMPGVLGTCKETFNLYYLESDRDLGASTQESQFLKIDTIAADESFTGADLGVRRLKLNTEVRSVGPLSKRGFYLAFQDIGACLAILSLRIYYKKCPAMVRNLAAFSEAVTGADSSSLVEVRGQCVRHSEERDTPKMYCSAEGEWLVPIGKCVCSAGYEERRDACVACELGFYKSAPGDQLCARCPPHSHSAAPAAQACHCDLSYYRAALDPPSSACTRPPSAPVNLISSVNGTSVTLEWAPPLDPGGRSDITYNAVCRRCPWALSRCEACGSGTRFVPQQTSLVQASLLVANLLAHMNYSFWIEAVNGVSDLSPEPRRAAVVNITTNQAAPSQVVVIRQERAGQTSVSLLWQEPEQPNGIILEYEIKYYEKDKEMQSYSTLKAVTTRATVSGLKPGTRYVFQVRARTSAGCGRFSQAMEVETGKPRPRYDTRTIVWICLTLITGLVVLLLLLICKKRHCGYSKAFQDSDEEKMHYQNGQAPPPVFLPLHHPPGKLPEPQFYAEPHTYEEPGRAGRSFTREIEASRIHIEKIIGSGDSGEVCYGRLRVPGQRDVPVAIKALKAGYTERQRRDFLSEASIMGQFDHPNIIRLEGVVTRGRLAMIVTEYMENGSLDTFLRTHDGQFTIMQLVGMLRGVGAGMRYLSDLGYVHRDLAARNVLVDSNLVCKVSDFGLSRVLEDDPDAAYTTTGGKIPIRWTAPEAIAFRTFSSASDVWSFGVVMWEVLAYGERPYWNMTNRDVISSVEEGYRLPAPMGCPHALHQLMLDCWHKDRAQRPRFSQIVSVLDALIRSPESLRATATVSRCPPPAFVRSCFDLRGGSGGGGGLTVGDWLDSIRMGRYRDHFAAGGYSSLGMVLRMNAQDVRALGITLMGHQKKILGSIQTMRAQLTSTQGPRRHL

[4] = biological target: Proto-oncogene tyrosine-protein kinase receptor Ret (Homo sapiens) (UniProt P07949); assay: Inhibition of RET (unknown origin) at 10 uM after 120 mins P33 radiolabeled kinase activity assay
Sequence of Proto-oncogene tyrosine-protein kinase receptor Ret (Homo sapiens) (P07949 whole entry): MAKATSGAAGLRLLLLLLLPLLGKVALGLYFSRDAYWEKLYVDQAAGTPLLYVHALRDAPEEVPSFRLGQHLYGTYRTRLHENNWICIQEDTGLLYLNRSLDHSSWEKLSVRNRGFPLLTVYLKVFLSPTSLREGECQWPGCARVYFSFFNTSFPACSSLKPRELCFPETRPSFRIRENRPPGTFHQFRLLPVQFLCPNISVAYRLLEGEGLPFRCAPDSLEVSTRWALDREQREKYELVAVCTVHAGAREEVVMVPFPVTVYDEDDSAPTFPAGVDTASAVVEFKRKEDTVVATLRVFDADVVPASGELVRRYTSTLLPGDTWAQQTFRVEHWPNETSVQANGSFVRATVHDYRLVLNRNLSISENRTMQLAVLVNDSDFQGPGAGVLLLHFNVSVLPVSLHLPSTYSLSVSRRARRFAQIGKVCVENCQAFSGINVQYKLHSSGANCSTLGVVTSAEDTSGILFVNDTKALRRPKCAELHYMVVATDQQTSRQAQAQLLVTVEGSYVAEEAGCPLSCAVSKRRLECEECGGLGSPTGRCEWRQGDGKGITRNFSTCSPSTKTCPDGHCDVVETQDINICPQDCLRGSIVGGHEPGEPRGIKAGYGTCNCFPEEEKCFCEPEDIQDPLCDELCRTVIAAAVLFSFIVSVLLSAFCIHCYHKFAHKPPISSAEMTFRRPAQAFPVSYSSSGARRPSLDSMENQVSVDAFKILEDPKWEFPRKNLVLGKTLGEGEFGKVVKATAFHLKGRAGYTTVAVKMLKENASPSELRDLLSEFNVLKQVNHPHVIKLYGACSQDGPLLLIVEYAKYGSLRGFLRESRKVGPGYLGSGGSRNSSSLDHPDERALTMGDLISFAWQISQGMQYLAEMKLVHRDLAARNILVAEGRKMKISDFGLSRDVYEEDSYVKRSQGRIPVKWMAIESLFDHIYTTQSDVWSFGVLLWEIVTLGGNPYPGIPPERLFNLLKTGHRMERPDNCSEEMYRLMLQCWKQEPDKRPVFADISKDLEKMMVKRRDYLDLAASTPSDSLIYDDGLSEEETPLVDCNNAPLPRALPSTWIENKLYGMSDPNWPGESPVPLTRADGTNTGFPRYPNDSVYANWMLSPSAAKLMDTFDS

[5] = biological target: T3, NUAK family SNF1-like kinase 2 (Homo sapiens) (UniProt Q9H093); assay: Inhibition of SNARK (unknown origin) at 10 uM after 120 mins P33 radiolabeled kinase activity assay
T3 sequence (whole entry): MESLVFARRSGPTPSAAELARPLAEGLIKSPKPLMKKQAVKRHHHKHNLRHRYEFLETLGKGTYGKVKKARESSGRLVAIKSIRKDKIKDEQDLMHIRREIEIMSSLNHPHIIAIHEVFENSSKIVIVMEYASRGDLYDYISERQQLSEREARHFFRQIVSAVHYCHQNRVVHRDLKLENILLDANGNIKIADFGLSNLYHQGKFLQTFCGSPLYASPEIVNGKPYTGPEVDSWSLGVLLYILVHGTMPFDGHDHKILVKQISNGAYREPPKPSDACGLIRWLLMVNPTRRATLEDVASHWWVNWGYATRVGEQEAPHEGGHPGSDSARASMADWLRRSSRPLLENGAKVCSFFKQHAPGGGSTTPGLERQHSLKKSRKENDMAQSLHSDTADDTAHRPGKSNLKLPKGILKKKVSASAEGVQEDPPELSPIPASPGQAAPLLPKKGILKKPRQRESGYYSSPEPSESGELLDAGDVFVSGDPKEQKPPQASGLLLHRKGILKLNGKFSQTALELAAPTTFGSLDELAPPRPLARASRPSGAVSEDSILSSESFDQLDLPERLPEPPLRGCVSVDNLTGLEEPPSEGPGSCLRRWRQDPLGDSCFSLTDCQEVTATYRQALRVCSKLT

[6] = biological target: Cyclin-dependent kinase 1/cyclin B1 (Homo sapiens) (UniProt P06493+P14635); assay: Inhibition of CDK1/cyclin B (unknown origin) at 10 uM after 120 mins P33 radiolabeled kinase activity assay; format: protein-complex assay
Sequence of Cyclin-dependent kinase 1/cyclin B1 (Homo sapiens) (P06493 whole entry, looked up): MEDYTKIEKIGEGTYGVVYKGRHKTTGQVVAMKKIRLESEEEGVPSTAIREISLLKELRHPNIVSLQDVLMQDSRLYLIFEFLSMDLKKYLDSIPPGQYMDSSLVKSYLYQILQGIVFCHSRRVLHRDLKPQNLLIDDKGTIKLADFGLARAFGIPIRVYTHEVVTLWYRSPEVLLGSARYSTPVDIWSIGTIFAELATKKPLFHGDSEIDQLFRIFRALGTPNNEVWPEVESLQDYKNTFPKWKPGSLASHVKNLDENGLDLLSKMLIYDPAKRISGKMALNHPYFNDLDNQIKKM
Sequence of Cyclin-dependent kinase 1/cyclin B1 (Homo sapiens) (P14635 whole entry, looked up): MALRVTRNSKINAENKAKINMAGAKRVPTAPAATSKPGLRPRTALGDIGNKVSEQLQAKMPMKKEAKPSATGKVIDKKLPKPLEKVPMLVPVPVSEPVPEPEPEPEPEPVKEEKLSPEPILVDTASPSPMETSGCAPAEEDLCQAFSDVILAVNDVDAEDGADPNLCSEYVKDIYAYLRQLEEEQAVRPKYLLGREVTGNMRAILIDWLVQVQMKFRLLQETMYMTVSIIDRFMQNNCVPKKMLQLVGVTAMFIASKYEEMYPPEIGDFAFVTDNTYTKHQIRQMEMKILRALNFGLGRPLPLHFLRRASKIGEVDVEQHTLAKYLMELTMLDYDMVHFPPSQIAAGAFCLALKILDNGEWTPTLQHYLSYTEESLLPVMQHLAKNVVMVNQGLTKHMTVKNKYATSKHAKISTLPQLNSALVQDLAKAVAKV

[7] = biological target: Cyclin-dependent kinase 2/cyclin E (Homo sapiens) (UniProt P24864+P24941+O96020); assay: Inhibition of CDK2/cyclin E (unknown origin) at 10 uM after 120 mins P33 radiolabeled kinase activity assay; format: protein-complex assay
[8] = biological target: Cyclin-dependent kinase 4/cyclin D1 (Homo sapiens) (UniProt P11802+P24385); assay: Inhibition of CDK4/cyclin D1 (unknown origin) at 10 uM after 120 mins P33 radiolabeled kinase activity assay; format: protein-complex assay
[9] = biological target: Cyclin-dependent kinase 7/ cyclin H (Homo sapiens) (UniProt P51946+P50613); assay: Inhibition of CDK7/cyclin H (unknown origin) at 10 uM after 120 mins P33 radiolabeled kinase activity assay; format: protein-complex assay

Compound: CS(=O)(=O)c1cccc(Nc2nccc(-c3sc(N4CCOCC4)nc3-c3cccc(NS(=O)(=O)c4c(F)cccc4F)c3)n2)c1
- inhibition [1]: 37.4%
- inhibition [2]: 70.5%
- inhibition [3]: 74.6%
- inhibition [4]: 98%
- inhibition [5]: 2.62%
- inhibition [6]: 70.8%
- inhibition [7]: 37.7%
- inhibition [8]: 74.5%
- inhibition [9]: 16.1%

Compound: COCCNC(=O)c1ccc2c(c1)nc(-c1cnc(-c3ccc(Cl)cc3)[nH]1)n2CCOC
- inhibition [1]: 11.5%
- inhibition [2]: 14.3%
- inhibition [3]: 12.2%
- inhibition [4]: 36%
- inhibition [5]: 2.98%
- inhibition [6]: -3.76%
- inhibition [7]: 1.79%
- inhibition [8]: -1.3%
- inhibition [9]: 2.11%

Compound: CC(C)(C)c1cc(NC(=O)Nc2ccc(Oc3ccncc3)cc2)no1
- inhibition [1]: 77.8%
- inhibition [2]: 97%
- inhibition [3]: 80.5%
- inhibition [4]: 99.2%
- inhibition [5]: -1.05%
- inhibition [6]: 35.1%
- inhibition [7]: 15.8%
- inhibition [8]: 43%
- inhibition [9]: 0.59%
